{"source": "ChEMBL document CHEMBL1158982", "about": "“Chemical studies on Mexican plants used in traditional medicine, XXI. Ratibinolide II, a new sesquiterpene lactone from Ratibida latipalearis” (J Nat Prod, 1991)", "assay": "Toxicity against brine shrimp", "assay_type": "organism-based", "settings": "artemia, in vivo"}
{"smiles": "C=C1C(=O)O[C@H]2[C@H]1CC[C@@]1(C)[C@@H](O)C=C[C@@]3(C)O[C@]231", "note": "[RATIBINOLIDE II]", "values": [{"measurement": "LC50", "value": 69.5, "unit": "µg/mL"}]}
